In patent US20210122730A1, “GLUCOCORTICOID RECEPTOR MODULATORS” (ORIC Pharmaceuticals, Inc., priority 2017, published 2021):

Key:
GR = target: T1, GR (Homo sapiens, UniProt P04150); test: In Vitro GR Luciferase Reporter Assay (antagonist mode, CHO-K1-GR-MMTV-Luc reporter cells); assay type: cell-based; settings: antagonist mode, 10 nM Dexamethasone
T1 construct: expressed in transfected cells; host or cells: CHO-K1
T1 sequence (P04150 1-777): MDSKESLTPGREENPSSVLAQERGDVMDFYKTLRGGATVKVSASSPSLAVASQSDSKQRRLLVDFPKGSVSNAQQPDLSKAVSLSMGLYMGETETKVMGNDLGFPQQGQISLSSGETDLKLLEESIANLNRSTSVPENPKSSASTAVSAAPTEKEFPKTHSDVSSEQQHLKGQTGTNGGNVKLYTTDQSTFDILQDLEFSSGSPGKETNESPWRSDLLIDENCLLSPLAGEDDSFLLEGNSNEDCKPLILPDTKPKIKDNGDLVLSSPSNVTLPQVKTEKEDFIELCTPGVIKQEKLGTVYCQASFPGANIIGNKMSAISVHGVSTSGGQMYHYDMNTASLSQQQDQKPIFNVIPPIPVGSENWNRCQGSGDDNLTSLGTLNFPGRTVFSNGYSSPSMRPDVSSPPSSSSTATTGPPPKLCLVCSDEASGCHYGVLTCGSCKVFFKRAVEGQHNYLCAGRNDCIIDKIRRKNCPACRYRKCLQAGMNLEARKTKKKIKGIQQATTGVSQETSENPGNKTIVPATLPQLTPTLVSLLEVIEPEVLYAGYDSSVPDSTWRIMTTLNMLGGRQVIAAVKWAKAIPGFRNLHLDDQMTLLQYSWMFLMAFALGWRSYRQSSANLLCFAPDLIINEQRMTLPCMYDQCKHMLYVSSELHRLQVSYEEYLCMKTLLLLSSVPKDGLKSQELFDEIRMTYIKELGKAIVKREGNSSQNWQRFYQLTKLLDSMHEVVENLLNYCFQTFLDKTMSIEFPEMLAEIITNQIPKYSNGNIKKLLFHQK
In short: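 Antagonist mode: compounds (8 serial 1:5 dilutions) added to GR-MMTV-luciferase CHO-K1 reporter cells co-exposed to 10 nM dexamethasone final, in phenol red-free DMEM plus 10% CSS. After roughly 18-24 h at 37° C, OneGlo luminescence read and IC50 calculated.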

CYP2C8 = target: T2, CYP2C8 (Homo sapiens, UniProt P10632); test: CYP Inhibition Assay (CYP2C8, human liver microsomes, paclitaxel substrate); assay type: in vitro ADME; settings: pH 7.4; pooled human liver microsomes 0.1 mg/mL, probe substrate paclitaxel
T2 construct: Pooled human microsomes were obtained from Sekisui XenoTech, KS; tissue Sekisui XenoTech, KS; host or cells: pooled human liver microsomes
T2 sequence (P10632 1-490): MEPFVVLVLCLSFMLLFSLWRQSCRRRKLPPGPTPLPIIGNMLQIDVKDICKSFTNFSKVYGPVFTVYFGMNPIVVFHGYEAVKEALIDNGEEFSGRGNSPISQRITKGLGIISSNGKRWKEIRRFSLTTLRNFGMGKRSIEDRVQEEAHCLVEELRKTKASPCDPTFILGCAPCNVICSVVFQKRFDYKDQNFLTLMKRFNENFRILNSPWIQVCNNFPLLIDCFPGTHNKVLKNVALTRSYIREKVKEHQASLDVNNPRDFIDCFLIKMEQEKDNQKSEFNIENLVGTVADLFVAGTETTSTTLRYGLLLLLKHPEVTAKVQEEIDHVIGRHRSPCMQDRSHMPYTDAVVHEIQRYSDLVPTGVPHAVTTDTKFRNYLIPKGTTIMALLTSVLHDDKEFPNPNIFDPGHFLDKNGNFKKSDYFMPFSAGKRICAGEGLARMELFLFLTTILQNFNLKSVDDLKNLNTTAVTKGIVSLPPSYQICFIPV
In short: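 CYP2C8 activity read as 6α-hydroxypaclitaxel formation by LC-MS/MS, with % inhibition versus vehicle control. Reactions ran 5 min at 37° C, pH 7.4 phosphate buffer, 0.1 mg/mL pooled human liver microsomes, 1 mM NADPH, duplicate wells.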

| SMILES | IC50 (GR) | inhibition at 5 min (CYP2C8) |
| --- | --- | --- |
| O=C(c1cc(C(F)(F)F)ccn1)[C@]12Cc3cnn(-c4ccc(F)cc4)c3C=C1CC[C@H](N(CC1CC1)S(=O)(=O)c1ccc(Cl)nc1)C2 [Example 294, 6-chloro-N-(cyclopropylmethyl)-N-((4aS,6S)-1-(4-fluorophenyl)-4a-(4-(trifluoromethyl)picolinoyl)-4,4a,5,6,7,8-hexahydro-1H-benzo[f]indazol-6-yl)pyridine-3-sulfonamide] | ≤ 100 nM | ≤ 25% |
| CC(C)N([C@H]1CCC2=Cc3c(cnn3-c3ccc(F)cc3)C[C@]2(C(=O)c2cc(F)ccn2)C1)S(=O)(=O)c1cn(C)nn1 [Example 295, N-((4aS,6S)-1-(4-fluorophenyl)-4a-(4-fluoropicolinoyl)-4,4a,5,6,7,8-hexahydro-1H-benzo[f]indazol-6-yl)-N-isopropyl-1-methyl-1H-1,2,3-triazole-4-sulfonamide] | ≤ 100 nM | 50 to 75% |
| CC(C)N([C@H]1CCC2=Cc3c(cnn3-c3ccc(F)cc3)C[C@]2(C(=O)c2cc(Cl)ccn2)C1)S(=O)(=O)c1cn(C)nn1 [Example 296, N-((4aS,6S)-4a-(4-chloropicolinoyl)-1-(4-fluorophenyl)-4,4a,5,6,7,8-hexahydro-1H-benzo[f]indazol-6-yl)-N-isopropyl-1-methyl-1H-1,2,3-triazole-4-sulfonamide] | ≤ 100 nM | 50 to 75% |

More lines, now with the values ahead:

| IC50 (GR) | inhibition at 5 min (CYP2C8) | SMILES |
| --- | --- | --- |
| ≤ 100 nM | 50 to 75% | Cn1ccc(S(=O)(=O)N(CC2CC2)[C@H]2CCC3=Cc4c(cnn4-c4ccc(F)cc4)C[C@]3(C(=O)c3cc(C(F)F)ccn3)C2)n1 [Example 298, N-(cyclopropylmethyl)-N-((4aS,6S)-4a-(4-(difluoromethyl)picolinoyl)-1-(4-fluorophenyl)-4,4a,5,6,7,8-hexahydro-1H-benzo[f]indazol-6-yl)-1-methyl-1H-pyrazole-3-sulfonamide] |
| ≤ 100 nM | ≤ 25% | CC(C)N([C@H]1CCC2=Cc3c(cnn3-c3ccc(F)cc3)C[C@]2(C(=O)c2ncc(C(F)(F)F)s2)C1)S(=O)(=O)c1cn(C)cn1 [Example 299, N-((4aS,6S)-1-(4-fluorophenyl)-4a-(5-(trifluoromethyl)thiazole-2-carbonyl)-4,4a,5,6,7,8-hexahydro-1H-benzo[f]indazol-6-yl)-N-isopropyl-1-methyl-1H-imidazole-4-sulfonamide] |
| ≤ 100 nM | 50 to 75% | Cn1ncc(S(=O)(=O)N(CC(F)(F)F)[C@H]2CCC3=Cc4c(cnn4-c4ccc(F)cc4)C[C@]3(C(=O)c3ncc(C(F)(F)F)s3)C2)n1 [Example 300, N-((4aS,6S)-1-(4-fluorophenyl)-4a-(5-(trifluoromethyl)thiazole-2-carbonyl)-4,4a,5,6,7,8-hexahydro-1H-benzo[f]indazol-6-yl)-2-methyl-N-(2,2,2-trifluoroethyl)-2H-1,2,3-triazole-4-sulfonamide] |
| ≤ 100 nM | 25 to 50% | Cc1ncc(S(=O)(=O)N(C2CC2)[C@H]2CCC3=Cc4c(cnn4-c4ccc(F)cc4)C[C@]3(C(=O)c3cc(C(F)(F)F)ccn3)C2)n1C [Example 307, N-cyclopropyl-N-((4aS,6S)-1-(4-fluorophenyl)-4a-(4-(trifluoromethyl)picolinoyl)-4,4a,5,6,7,8-hexahydro-1H-benzo[f]indazol-6-yl)-1,2-dimethyl-1H-imidazole-5-sulfonamide] |
| ≤ 100 nM | 25 to 50% | CCn1ccc(S(=O)(=O)[C@H]2CCC3=Cc4c(cnn4-c4ccc(F)cc4)C[C@]3(C(=O)c3ccc(C(F)(F)F)cn3)C2)n1 [Example 308, ((4aS,6S)-6-((1-ethyl-1H-pyrazol-3-yl)sulfonyl)-1-(4-fluorophenyl)-1,4,5,6,7,8-hexahydro-4aH-benzo[f]indazol-4a-yl)(5-(trifluoromethyl)pyridin-2-yl)methanone] |
